These results are taken from US6600069B2, “Benzene tricarboxylic acid derivatives as insulin receptor activators” (Telik, Inc., priority 2000, dated 2003).

Test [1] concerns 3T3 L1 fibroblasts differentiated to adipocytes. Put plainly: Glucose transport activity (14C-2-deoxy-D-glucose uptake). It counts as cell-based. Particulars: Mus musculus, 3T3-L1; concentration producing increase in glucose transport generally 150% of the vehicle control; insulin 5.6 nM; read-out: Glucose Transport EC (effective concentration). On the procedure: Glucose Transport Activity
3T3 L1 fibroblasts (ATCC) were grown in Dulbecco's modified Eagie's medium (DMEM) with 10% fetal bovine serum (FBS). The cells were plated at a density of 3×10^4 cells/well in 24-well plates. Two days after confluence was reached, the cells were treated for 3 days with […] isobutylmethylxanthine (IBMX), 1 μM dexamethasone, and 1.7 μM insulin. The cells were then transferred to DMEM with 10% fresh bovine serum with 1.7 μM insulin for 2 more days. The cells were maintained in DMEM with 10% FBS for an additional 4 days. Finally the cells were serum starved overnight in 0.1% bovine serum albumin (BSA) in DMEM prior to exposure to the test compounds.
The following day, the medium was replaced with 150 mM NaCl, 1.7 mM KCl, 0.9 mM CaCl2, K2HPO4 (pH 7.4) to which was added either the experimental compounds, or their vehicle (DMSO). Insulin or its vehicle (0.01% BSA) was diluted in the assay buffer (containing test compound or vehicle, respectively) to a final concentration of 5.6 nM. After incubation for 30 min at 37° C., 0.5 μCi/ml of ^14C-2-deoxy-D-glucose was added, and the incubation was continued for additional 30 min at 37° C. The cells were then washed 3 times with ice-cold PBS/20 mM glucose and lysed in 250 μl of lysis buffer (50 mM HEPES pH 7.6, 1% Triton X-100) for 30 min at room temperature. Radioactivity in the lysate was quantified by scintillation counting.
Once ^14C-2-deoxy-D-glucose is transported into the cell it is not released. Glucose transport is, therefore, proportional to the amount of radioactivity in the lysate. The concentration of compound necessary to produce an increase in glucose transport greater than the sum of the standard deviation of the vehicle control plus the largest standard deviation of a test sample (generally 150% of the vehicle control) was recorded as the EC (effective concentration) The results of the glucose transport activity assay are shown in Table 2,

For test [2], the target named is T1, β-kinase domain of the human insulin receptor (CKD) (Homo sapiens, UniProt P06213).
T1 construct: The complete β-kinase domain of the human insulin receptor (CKD); made in house
Put plainly: 32P-cytoplasmic kinase domain (CKD) autophosphorylation assay. It counts as biochemical. Particulars: 32P incorporated into CKD band, 10 minutes at room temperature, 50 μM ATP; test concentration not given. On the procedure: ^32P-cytoplasmic Kinase Domain (CKD) Autophosphorylation Assay
The complete β-kinase domain of the human insulin receptor (CKD) was expressed in, and purified from, baculovirus. CKD (4.0 μg/ml), in a solution of 29 mM HEPES (pH 7.6), 0.05% Triton X-100, 10 mM MgCl2, 2 mM MnCl2 (50 μl final volume), was combined with 50 μM ATP, and 5 μCi ^32P-ATP (3000 Ci/mmol.). A test compound, or the vehicle (DMSO), was added to a final DMSO concentration of 1%. The mixture was incubated for 10 minutes at room temperature. The reaction was terminated by the addition of 10 μl of 200 mM EDTA. A 30 μl volume was removed, mixed with 5 μl of 6× Laemmeli sodium dodecyl sulfate (SDS) treatment buffer, and heated to 95° C. for 5 minutes. A 20 μl aliquot was then run on an SDS-PAGE gel. The radioactivity incorporated into the CKD band is quantified by phosphorimaging of the gel, or scintillation counting of the excised bands.
The potency of a compound for increasing phosphorylation is expressed as a percentage of the vehicle level.

T1 sequence (P06213 980-1382 limits assumed): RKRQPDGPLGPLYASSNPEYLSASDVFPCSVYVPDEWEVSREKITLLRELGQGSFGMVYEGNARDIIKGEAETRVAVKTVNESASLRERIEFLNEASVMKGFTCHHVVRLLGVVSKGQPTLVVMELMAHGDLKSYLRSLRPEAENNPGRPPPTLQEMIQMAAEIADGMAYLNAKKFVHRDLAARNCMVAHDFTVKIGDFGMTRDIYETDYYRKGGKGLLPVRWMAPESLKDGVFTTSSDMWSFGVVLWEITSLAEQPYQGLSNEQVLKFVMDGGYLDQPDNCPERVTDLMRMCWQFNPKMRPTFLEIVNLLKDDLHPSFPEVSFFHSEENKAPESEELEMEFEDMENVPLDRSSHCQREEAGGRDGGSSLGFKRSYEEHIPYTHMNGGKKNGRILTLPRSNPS

In the case of `COC(=O)c1ccc(NC(=O)c2cc(C(=O)Nc3ccc(C(=O)OC)cc3)cc(C(=O)Nc3ccc(C(=O)OC)cc3)c2)cc1` [Compound 20, methyl 4-[(3,5-bis{N-[4-(methoxycarbonyl)phenyl]carbamoyl}phenyl)carbonyl-amino]benzoate], in test [1], the EC50 is 3.2 µM. In test [2], the “CKD phosphorylation (percentage of the vehicle level)” value came to 77.4%.

Turning to `O=C(O)c1cc(NC(=O)c2cc(C(=O)Nc3cc(C(=O)O)cc(C(=O)O)c3)cc(C(=O)Nc3cc(C(=O)O)cc(C(=O)O)c3)c2)cc(C(=O)O)c1` [Compound 21, 5-({3,5-bis[N-(3,5-dicarboxyphenyl)carbamoyl]phenyl}carbonylamino)benzene-1,3-dicarboxylic acid], the EC50 in test [1] turned out to be 3.2 µM. For the same compound, the “CKD phosphorylation (percentage of the vehicle level)” value in test [2] is 97.8%.

With `O=C(Nc1cccc(C(=O)O)c1C(=O)O)c1cc(C(=O)Nc2cccc(C(=O)O)c2C(=O)O)cc(C(=O)Nc2cccc(C(=O)O)c2C(=O)O)c1` [Compound 22, 3-({3,5-bis[N-(2,3-dicarboxyphenyl)carbamoyl]phenyl}carbonylamino)benzene-1,2-dicarboxylic acid], in test [1], the EC50 was found to be 3.2 µM. For the same compound, in test [2], the “CKD phosphorylation (percentage of the vehicle level)” value is recorded as 118.1%.

Take `COC(=O)c1ccccc1NC(=O)c1cc(C(=O)Nc2ccccc2C(=O)OC)cc(C(=O)Nc2ccccc2C(=O)OC)c1` [Compound 23, methyl 2-[(3,5-bis{N-[2-(methoxycarbonyl)phenyl]carbamoyl}phenyl)carbonyl-amino]benzoate]: the EC50 in test [1] turned out to be 1.6 µM. In addition, the “CKD phosphorylation (percentage of the vehicle level)” value in test [2] was determined as 87.4%.
